Literature values as cited in article PMC3983394 (Journal of Medicinal Chemistry, 2014).

Columns and labels:
mice [1] = test system: mice
mice [2] = test system: mice; remark: listed apart in the source
mice [3] = test system: mice; remark: listed apart in the source
mice [4] = test system: mice; remark: listed apart in the source

For CN1CCC[C@H]1c1cccnc1 [nicotine], the ED50 hypothermia (mice [1]) is given as 1.0 (0.6–2.1) mg/kg, the ED50 spontaneous activity (mice [2]) is given as 0.5 (0.15–0.78) mg/kg and the ED50 tail-flick (mice [3]) is given as 1.3 (0.5–1.8) mg/kg. For the same compound, the ED50 hot-plate (mice [4]) was 0.65 (0.25–0.85) mg/kg.
